Results as given in patent US4485113A (priority 1979, dated 1984).

What was measured:
rat = settings: in vivo, po
in vivo = settings: rat, po

| Structure (SMILES) | A.O. Rat. LD50 (rat) [mg/kg] | LD50 (in vivo) [mg/kg] |
| --- | --- | --- |
| CNC(=O)ON=C(C)SC [Compound 1] | 49 |  |
| CNC(=O)ON=C(C)SC(C)C [Compound 3] | 8 |  |
| CSC(C)=NOC(=O)N(C)SC(C)(C)C#N [X, 1-Methylthioacetaldehyde O-[N-methyl-N-(2-cyano-2-propanesulfenyl)carbamoyl]oxime] |  | 127 |
| CN(SC(C)(C)CCl)C(=O)ON=C1SC(C)(C)C(=O)N1C [XIII, 3,5,5-Trimethyl-2-[[O--[N--methyl-N--(2-chloromethyl-2-propanesulfenyl)carbamoyl]oximino]]-4-thiazolidinone] |  | 343 |
| CN(SC(C)(C#N)CCl)C(=O)ON=C1SC(C)(C)C(=O)N1C (centres unmarked) [XIX, 3,5,5-Trimethyl-2-[[O--[N--methyl-N--(1-chloro-2-cyano-2-propanesulfenyl)carbamoyl]oximino]]-4-thiazolidinone] |  | 320 |
| CC(=NOC(=O)N(C)SC(C)(C)C#N)SC(C)C [XXIII, 1-Isopropylthioacetaldehyde O--[N--methyl-N--(2-cyano-2-propanesulfenyl)carbamoyl]oxime] |  | 20 |
| CC(=NOC(=O)N(C)SC(C)(C)C#N)SCCC#N [XXIV, 1-(2-Cyanoethylthio)acetaldehyde O--[N--methyl-N--(2-cyano-2-propanesulfenyl)carbamoyl]oxime] |  | 14.1 |
| CC(=NOC(=O)N(C)SSC(C)(C)C#N)SC(C)C [XXIX, 1-Isopropylthioacetaldehyde O--[N-- methyl-N--(2-cyano-2-propanethiosulfenyl)carbamoyl]oxime] |  | 18 |
| CN(SC(C)(C)C#N)C(=O)ON=C1CSCCS1 [XXVI, 2-[[O--[N--methyl-N--(2-cyano-2-propanesulfenyl)carbamoyl]oximino]]-1,4-dithiane] |  | 40 |
| CC(=NOC(=O)N(C)SSC(C)(C)C#N)SCCC#N [XXVIII, 1-(2-Cyanoethylthio)acetaldehyde O--[N--methyl-N--(2-cyano-2-propanethiosulfenyl)carbamoyl]oxime] |  | 28 |
| CSC(C)=NOC(=O)N(C)SSC(C)(C)C#N [XXVII] |  | 127 |
| CN(SSC(C)(C)C#N)C(=O)ON=CC(C)(C)C#N [XXXII, 2-Cyano-2-methylpropionaldehyde O--[N--methyl-N--(2-cyano-2-propanethiosulfenyl)carbamoyl]oxime] |  | 14 |
| CC1OCSC1=NOC(=O)N(C)SSC(C)(C)C#N (centres unmarked) [XXXIV, 5-Methyl-4-[[O--[N--methyl-N--(2-cyano-2-propanethiosulfenyl)carbamoyl]oximino]]-1,3-oxathiolane] |  | 14 |
| CN(SSC(C)(C)C#N)C(=O)ON=C1CSCCS1 [XXXV, 2-[[O--[N--methyl-N--(2-cyano-2-propanethiosulfenyl)carbamoyl]oximino]]-1,4-dithiane] |  | 32 |
